Source: patent US10167262B2, “Herbicidal substituted 3-arylpyrazoles” (FMC CORPORATION, priority 2014, dated 2019)
Read-outs that look alike come from different tables or passages of the source.

Columns and labels:
Format in all cases: in vivo
[1] = tested on: giant foxtail (Setaria faberii); experiment: Test C pre-/postemergence greenhouse test, plant response rating 0-100; settings: Setaria faberi; for pest or weed control at 62 g/ha: 62 g ai/ha; for pest or weed control at 125 g/ha: 125 g ai/ha; for pest or weed control at 250 g/ha: 250 g ai/ha; for pest or weed control at 500 g/ha: 500 g ai/ha
In short: (§1)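 Scores run from 0, no effect, to 100, complete control, assigned by eye after treated plants and controls spent 13 to 15 days in a greenhouse. Soil-applied treatment went onto freshly sown seed in loam and sand; foliar treatment hit seedlings at the 1- to 4-leaf stage.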

[2] = tested on: pigweed (Amaranthus retroflexus); experiment: as above; settings: Amaranthus retroflexus; for pest or weed control at 62 g/ha: 62 g ai/ha; for pest or weed control at 125 g/ha: 125 g ai/ha; for pest or weed control at 250 g/ha: 250 g ai/ha; for pest or weed control at 500 g/ha: 500 g ai/ha
In short: as §1

[3] = tested on: blackgrass (Alopecurus myosuroides); experiment: as above; settings: Alopecurus myosuroides; for pest or weed control at 62 g/ha: 62 g ai/ha; for pest or weed control at 125 g/ha: 125 g ai/ha; for pest or weed control at 250 g/ha: 250 g ai/ha; for pest or weed control at 500 g/ha: 500 g ai/ha
In short: as §1

[4] = tested on: corn (Zea mays); experiment: as above; settings: Zea mays; for Corn plant response rating (crop injury, 0 = no effect, 100 = complete kill) at 250 g/ha: 250 g ai/ha; for Corn plant response rating (crop injury, 0 = no effect, 100 = complete kill) at 500 g/ha: 500 g ai/ha
In short: as §1

[5] = tested on: yellow nutsedge (Cyperus esculentus); experiment: as above; settings: Cyperus; for pest or weed control at 62 g/ha: 62 g ai/ha; for pest or weed control at 125 g/ha: 125 g ai/ha; for pest or weed control at 250 g/ha: 250 g ai/ha; for pest or weed control at 500 g/ha: 500 g ai/ha
In short: as §1

[6] = tested on: johnsongrass (Sorghum halepense); experiment: as above; settings: Sorghum halepense; for pest or weed control at 62 g/ha: 62 g ai/ha; for pest or weed control at 125 g/ha: 125 g ai/ha; for pest or weed control at 250 g/ha: 250 g ai/ha; for pest or weed control at 500 g/ha: 500 g ai/ha
In short: as §1

[7] = tested on: lambsquarters (Chenopodium album); experiment: as above; settings: Chenopodium album; for pest or weed control at 62 g/ha: 62 g ai/ha; for pest or weed control at 125 g/ha: 125 g ai/ha; for pest or weed control at 250 g/ha: 250 g ai/ha; for pest or weed control at 500 g/ha: 500 g ai/ha
In short: as §1

[8] = tested on: large (Lg) crabgrass (Digitaria sanguinalis); experiment: as above; settings: Digitaria sanguinalis; for pest or weed control at 62 g/ha: 62 g ai/ha; for pest or weed control at 125 g/ha: 125 g ai/ha; for pest or weed control at 250 g/ha: 250 g ai/ha; for pest or weed control at 500 g/ha: 500 g ai/ha
In short: as §1

[9] = tested on: oilseed rape (Brassica napus); experiment: as above
In short: as §1

[10] = tested on: winter wheat (Triticum aestivum); experiment: as above; settings: Triticum aestivum; for plant injury at 62 g/ha: 62 g ai/ha; for plant injury at 125 g/ha: 125 g ai/ha; for plant injury at 250 g/ha: 250 g ai/ha; for plant injury at 500 g/ha: 500 g ai/ha
In short: as §1

[11] = tested on: soybean (Glycine max); experiment: as above; settings: Glycine max; for plant injury at 62 g/ha: 62 g ai/ha; for plant injury at 125 g/ha: 125 g ai/ha; for plant injury at 250 g/ha: 250 g ai/ha; for plant injury at 500 g/ha: 500 g ai/ha
In short: as §1

[12] = tested on: kochia (Kochia scoparia); experiment: Test C postemergence greenhouse test, plant response rating 0-100; settings: Bassia scoparia, post-emergence
In short: (§2)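 Potted in peat/vermiculite mix; postemergence application at 1–4 leaves (2–18 cm); greenhouse 13–15 d; visual score 0–100 relative to untreated plants; dash = no test result.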

[13] = tested on: chickweed (common chickweed, Stellaria media); experiment: as above; settings: Stellaria media, post-emergence
In short: as §2

[14] = tested on: wild oat (Avena fatua); experiment: as above; settings: Avena fatua, post-emergence
In short: as §2

[15] = post-emergence, Postemergence, read-out: Plant response rating (0 to 100), Foxtail, Giant
[16] = post-emergence, Postemergence, scale 0 to 100
[17] = pre-emergence, Preemergence, read-out: Plant response rating, Foxtail, Giant
[18] = post-emergence, Postemergence, read-out: Plant response rating (0 to 100), Pigweed
[19] = pre-emergence, Preemergence, read-out: Plant response rating, Pigweed
[20] = pre-emergence, Preemergence, read-out: Plant response rating, Blackgrass
[21] = post-emergence, Postemergence, read-out: Plant response rating (0 to 100), Nutsedge, Yellow
[22] = pre-emergence, Preemergence, read-out: Plant response rating, Nutsedge, Yellow
[23] = post-emergence, Postemergence, read-out: Plant response rating (0 to 100), Johnsongrass
[24] = pre-emergence, Preemergence, read-out: Plant response rating, Johnsongrass
[25] = post-emergence, Postemergence, read-out: Plant response rating (0 to 100), Lambsquarters
[26] = pre-emergence, Preemergence, read-out: Plant response rating, Lambsquarters
[27] = post-emergence, Postemergence, read-out: Plant response rating (0 to 100), Crabgrass, Large
[28] = pre-emergence, Preemergence, read-out: Plant response rating, Crabgrass, Large
[29] = post-emergence, Postemergence, read-out: Plant response rating (0 to 100), Wheat
[30] = pre-emergence, Preemergence, read-out: Plant response rating, Wheat
[31] = post-emergence, Postemergence, read-out: Plant response rating (0 to 100), Soybean
[32] = pre-emergence, Preemergence, read-out: Plant response rating, Soybean

SMILES: COCC(=O)n1cc(C(=O)c2ccccc2)c(-c2cc(Cl)cc(Cl)c2)n1 [Compound 16, 1-[4-benzoyl-3-(3,5-dichlorophenyl)-1H-pyrazol-1-yl]-2-methoxyethanone]
- pest or weed control at 62 g/ha [1, 15]: 0%
- pest or weed control at 125 g/ha [1, 15]: 0%
- pest or weed control at 250 g/ha [1, 16]: 0%
- pest or weed control at 500 g/ha [1, 16]: 10%
- pest or weed control at 62 g/ha [1, 17]: 0%
- pest or weed control at 125 g/ha [1, 17]: 0%
- pest or weed control at 250 g/ha ([1]; pre-emergence, Preemergence): 0%
- pest or weed control at 500 g/ha ([1]; pre-emergence, Preemergence): 0%
- pest or weed control at 62 g/ha [2, 18]: 85%
- pest or weed control at 125 g/ha [2, 18]: 85%
- pest or weed control at 250 g/ha [2, 16]: 100%
- pest or weed control at 500 g/ha [2, 16]: 100%
- pest or weed control at 62 g/ha [2, 19]: 85%
- pest or weed control at 125 g/ha [2, 19]: 85%
- pest or weed control at 250 g/ha ([2]; pre-emergence, Preemergence): 100%
- pest or weed control at 500 g/ha ([2]; pre-emergence, Preemergence): 100%
- pest or weed control at 62 g/ha ([3]; post-emergence, Postemergence, read-out: Plant response rating (0 to 100), Blackgrass): 0%
- pest or weed control at 125 g/ha ([3]; post-emergence, Postemergence, scale 0 to 100, read-out: Plant response rating, Blackgrass): 0%
- pest or weed control at 250 g/ha [3, 16]: 0%
- pest or weed control at 500 g/ha [3, 16]: 0%
- pest or weed control at 62 g/ha [3, 20]: 0%
- pest or weed control at 125 g/ha [3, 20]: 0%
- pest or weed control at 250 g/ha ([3]; pre-emergence, Preemergence): 0%
- pest or weed control at 500 g/ha ([3]; pre-emergence, Preemergence): 0%
- plant injury at 62 g/ha ([4]; post-emergence, Postemergence, 62 g ai/ha): 0%
- plant injury at 125 g/ha ([4]; post-emergence, Postemergence, 125 g ai/ha): 0%
- Corn plant response rating (crop injury, 0 = no effect, 100 = complete kill) at 250 g/ha [4, 16]: 0%
- Corn plant response rating (crop injury, 0 = no effect, 100 = complete kill) at 500 g/ha [4, 16]: 0%
- Corn plant response rating (crop injury, 0 = no effect, 100 = complete kill) at 62 g/ha ([4]; pre-emergence, Preemergence, 62 g ai/ha): 0%
- Corn plant response rating (crop injury, 0 = no effect, 100 = complete kill) at 125 g/ha ([4]; pre-emergence, Preemergence, 125 g ai/ha): 0%
- Corn plant response rating (crop injury, 0 = no effect, 100 = complete kill) at 250 g/ha ([4]; pre-emergence, Preemergence): 0%
- Corn plant response rating (crop injury, 0 = no effect, 100 = complete kill) at 500 g/ha ([4]; pre-emergence, Preemergence): 0%
- pest or weed control at 62 g/ha [5, 21]: 0%
- pest or weed control at 125 g/ha [5, 21]: 0%
- pest or weed control at 250 g/ha [5, 16]: 0%
- pest or weed control at 500 g/ha [5, 16]: 5%
- pest or weed control at 62 g/ha [5, 22]: 0%
- pest or weed control at 125 g/ha [5, 22]: 0%
- pest or weed control at 250 g/ha ([5]; pre-emergence, Preemergence): 0%
- pest or weed control at 500 g/ha ([5]; pre-emergence, Preemergence): 0%
- pest or weed control at 62 g/ha [6, 23]: 0%
- pest or weed control at 125 g/ha [6, 23]: 0%
- pest or weed control at 250 g/ha [6, 16]: 0%
- pest or weed control at 500 g/ha [6, 16]: 0%
- pest or weed control at 62 g/ha [6, 24]: 0%
- pest or weed control at 125 g/ha [6, 24]: 0%
- pest or weed control at 250 g/ha ([6]; pre-emergence, Preemergence): 0%
- pest or weed control at 500 g/ha ([6]; pre-emergence, Preemergence): 0%
- pest or weed control at 62 g/ha [7, 25]: 70%
- pest or weed control at 125 g/ha [7, 25]: 75%
- pest or weed control at 250 g/ha [7, 16]: 75%
- pest or weed control at 500 g/ha [7, 16]: 75%
- pest or weed control at 62 g/ha [7, 26]: 100%
- pest or weed control at 125 g/ha [7, 26]: 100%
- pest or weed control at 250 g/ha ([7]; pre-emergence, Preemergence): 100%
- pest or weed control at 500 g/ha ([7]; pre-emergence, Preemergence): 100%
- pest or weed control at 62 g/ha [8, 27]: 0%
- pest or weed control at 125 g/ha [8, 27]: 0%
- pest or weed control at 250 g/ha [8, 16]: 0%
- pest or weed control at 500 g/ha [8, 16]: 0%
- pest or weed control at 62 g/ha [8, 28]: 0%
- pest or weed control at 125 g/ha [8, 28]: 0%
- pest or weed control at 250 g/ha ([8]; pre-emergence, Preemergence): 0%
- pest or weed control at 500 g/ha ([8]; pre-emergence, Preemergence): 0%
- Plant response rating (0 to 100), Oilseed Rape ([9]; Postemergence, 62 g ai/ha): 50
- Plant response rating (0 to 100), Oilseed Rape ([9]; Postemergence, 125 g ai/ha): 60
- Plant response rating, Oilseed Rape ([9]; Postemergence, 250 g ai/ha, scale 0 to 100): 90
- Plant response rating, Oilseed Rape ([9]; Postemergence, 500 g ai/ha, scale 0 to 100): 90
- Plant response rating, Oilseed Rape ([9]; Preemergence, 62 g ai/ha): 0
- Plant response rating, Oilseed Rape ([9]; Preemergence, 125 g ai/ha): 50
- Plant response rating, Oilseed Rape ([9]; Preemergence, 250 g ai/ha): 100
- Plant response rating, Oilseed Rape ([9]; Preemergence, 500 g ai/ha): 100
- plant injury at 62 g/ha [10, 29]: 0%
- plant injury at 125 g/ha [10, 29]: 0%
- plant injury at 250 g/ha [10, 16]: 0%
- plant injury at 500 g/ha [10, 16]: 0%
- plant injury at 62 g/ha [10, 30]: 0%
- plant injury at 125 g/ha [10, 30]: 0%
- plant injury at 250 g/ha ([10]; pre-emergence, Preemergence): 0%
- plant injury at 500 g/ha ([10]; pre-emergence, Preemergence): 0%
- plant injury at 62 g/ha [11, 31]: 0%
- plant injury at 125 g/ha [11, 31]: 0%
- plant injury at 250 g/ha [11, 16]: 0%
- plant injury at 500 g/ha [11, 16]: 0%
- plant injury at 62 g/ha [11, 32]: 0%
- plant injury at 125 g/ha [11, 32]: 0%
- plant injury at 250 g/ha ([11]; pre-emergence, Preemergence): 0%
- plant injury at 500 g/ha ([11]; pre-emergence, Preemergence): 0%
- pest or weed control at 62 g/ha ([12]; 62 g ai/ha): 80%
- pest or weed control at 125 g/ha ([12]; 125 g ai/ha): 85%
- pest or weed control at 250 g/ha ([12]; 250 g ai/ha, scale 0 to 100): 90%
- pest or weed control at 500 g/ha ([12]; 500 g ai/ha, scale 0 to 100): 90%
- pest or weed control at 62 g/ha ([13]; 62 g ai/ha): 95%
- pest or weed control at 125 g/ha ([13]; 125 g ai/ha): 100%
- pest or weed control at 250 g/ha ([13]; 250 g ai/ha, scale 0 to 100): 100%
- pest or weed control at 500 g/ha ([13]; 500 g ai/ha, scale 0 to 100): 100%
- pest or weed control at 62 g/ha ([14]; 62 g ai/ha): 0%
- pest or weed control at 125 g/ha ([14]; 125 g ai/ha): 0%
- pest or weed control at 250 g/ha ([14]; 250 g ai/ha, scale 0 to 100): 0%
- pest or weed control at 500 g/ha ([14]; 500 g ai/ha, scale 0 to 100): 0%
